From PubChem BioAssay AID1963873 (Molecular Pharmacology Branch, DTP, NCI, 2024)

Tested on: 276233-004-R-J1-PDC KRAS spheroids with HUVEC/MSC, viability
Assay: Anticancer human tumor 276233-004-R-J1-PDC patient-derived colon adenocarcinoma cell line growth inhibition [KRAS2]
Conditions: for IC50: curve of first compound; for viability, T/C: stronger effect = lower value
Summary of the method: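 KRAS-mutant tumor cells were grown as spheroids with HUVEC endothelial cells and human MSCs as stroma. Targeted agents were tested alone and with KRAS pathway inhibitors. Doses started at or near clinical Cmax, or 10 microM, descending half-log.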

[1] = second compound 0.0316 µM, first compound 0.0316 µM
[2] = second compound 0.0316 µM, first compound 0.1 µM
[3] = second compound 0.0316 µM, first compound 0.316 µM
[4] = second compound 0.0316 µM, first compound 1 µM
[5] = second compound 0.0316 µM, first compound 3.16 µM
[6] = second compound 0.1 µM, first compound 0.01 µM
[7] = second compound 0.1 µM, first compound 0.0316 µM
[8] = second compound 0.1 µM, first compound 0.1 µM
[9] = second compound 0.1 µM, first compound 0.316 µM
[10] = second compound 0.1 µM, first compound 1 µM
[11] = second compound 0.1 µM, first compound 3.16 µM
[12] = second compound 0.316 µM, first compound 0.01 µM
[13] = second compound 0.316 µM, first compound 0.0316 µM
[14] = second compound 0.316 µM, first compound 0.1 µM
[15] = second compound 0.316 µM, first compound 0.316 µM
[16] = second compound 0.316 µM, first compound 1 µM
[17] = second compound 0.316 µM, first compound 3.16 µM
[18] = second compound 1 µM, first compound 0.01 µM
[19] = second compound 1 µM, first compound 0.0316 µM
[20] = second compound 1 µM, first compound 0.1 µM
[21] = second compound 1 µM, first compound 0.316 µM
[22] = second compound 1 µM, first compound 1 µM
[23] = second compound 1 µM, first compound 3.16 µM
[24] = second compound 3.16 µM, first compound 0.01 µM
[25] = second compound 3.16 µM, first compound 0.0316 µM
[26] = second compound 3.16 µM, first compound 0.1 µM
[27] = second compound 3.16 µM, first compound 0.316 µM
[28] = second compound 3.16 µM, first compound 1 µM
[29] = second compound 3.16 µM, first compound 3.16 µM
[30] = second compound 0.0316 µM, first compound 10 µM
[31] = second compound 0.1 µM, first compound 10 µM
[32] = second compound 0.316 µM, first compound 10 µM
[33] = second compound 1 µM, first compound 10 µM
[34] = second compound 3.16 µM, first compound 10 µM
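Note: cells exposed to agents for seven days before viability read.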
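Throughout, for viability, T/C: 100% = DMSO vehicle control wells and lower values mean fewer viable cells.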

Row | SMILES | IC50 (second compound 0.1 µM) | IC50 (second compound 0.316 µM) | IC50 (second compound 1 µM) | IC50 (second compound 3.16 µM) | viability, T/C [7] | viability, T/C [8] | viability, T/C [9] | viability, T/C [10] | viability, T/C [11] | viability, T/C [13] | viability, T/C [14] | viability, T/C [15] | viability, T/C [16] | viability, T/C [17] | viability, T/C [19] | viability, T/C [20] | viability, T/C [21] | viability, T/C [22] | viability, T/C [23] | viability, T/C [25] | further results
1 | CC1COCCN1c1cc(-c2ccnn2C)c2ccnc(-c3ccn[nH]3)c2n1 (stereo not given) + C=CC(=O)N1CCN(c2nc(OCC3CCCN3C)nc3c2CCN(c2cccc4cccc(C)c24)C3)CC1CC#N | > 3.16 µM | > 3.16 µM | > 3.16 µM | 0.19 µM | 95.3% | 94.6% | 74.8% | 59% | 54.1% | 96.6% | 91.5% | 69.4% | 59.3% | 55.6% | 90.5% | 77.8% | 70.3% | 64% | 56.9% | 61% | IC50 (second compound 0.0316 µM): > 3.16 µM; viability, T/C (second compound 0.0316 µM, first compound 0.01 µM): 100%; viability, T/C [1]: 92.7%; viability, T/C [2]: 82.4%; viability, T/C [3]: 71.3%; viability, T/C [4]: 67.5%; viability, T/C [5]: 56%; viability, T/C [6]: 111%; viability, T/C [12]: 106%; viability, T/C [18]: 90%; viability, T/C [24]: 76.2%; viability, T/C [26]: 56.8%; viability, T/C [27]: 42.9%; viability, T/C [28]: 45.6%; viability, T/C [29]: 48%
2 | CC1OCC2(CCN(c3cnc(Sc4ccnc(N)c4Cl)c(N)n3)CC2)C1N (stereo not given) + C=CC(=O)N1CCN(c2nc(OCC3CCCN3C)nc3c2CCN(c2cccc4cccc(C)c24)C3)CC1CC#N | > 10 µM | > 10 µM | 9.49 µM | 0.521 µM | 98.2% | 85% | 81.5% | 69.3% | 68.7% | 102% | 98.7% | 83.4% | 76.7% | 67% | 98.2% | 84.7% | 81.2% | 83.5% | 63.5% | 69.1% | IC50 (second compound 0.0316 µM): > 10 µM; viability, T/C [1]: 105%; viability, T/C [2]: 90.5%; viability, T/C [3]: 91.2%; viability, T/C [4]: 85.7%; viability, T/C [5]: 70.2%; viability, T/C [30]: 59.8%; viability, T/C [31]: 56.3%; viability, T/C [32]: 55.3%; viability, T/C [33]: 49%; viability, T/C [26]: 60.4%; viability, T/C [27]: 58.2%; viability, T/C [28]: 39.7%; viability, T/C [29]: 35.9%; viability, T/C [34]: 39%
3 | Cn1nccc1Nc1nccc(-c2cc3c(s2)C(C)(C)N(CCN2CCOCC2)C3=O)n1 + C=CC(=O)N1CCN(c2nc(OCC3CCCN3C)nc3c2CCN(c2cccc4cccc(C)c24)C3)CC1CC#N | > 10 µM | > 10 µM | > 10 µM | 0.236 µM | 100% | 99.3% | 79.7% | 75.7% | 51.7% | 109% | 98% | 101% | 77.8% | 56.4% | 101% | 109% | 87.2% | 77% | 55.3% | 68.7% | IC50 (second compound 0.0316 µM): 4.83 µM; viability, T/C [1]: 99.8%; viability, T/C [2]: 108%; viability, T/C [3]: 86.1%; viability, T/C [4]: 75.9%; viability, T/C [5]: 51.7%; viability, T/C [30]: 44.5%; viability, T/C [31]: 52.2%; viability, T/C [32]: 57.4%; viability, T/C [33]: 65.9%; viability, T/C [26]: 46.7%; viability, T/C [27]: 46.7%; viability, T/C [28]: 47.5%; viability, T/C [29]: 21.2%; viability, T/C [34]: 10.9%
4 | CC(=O)OC12COC1CC(O)C1(C)C(=O)C(O)C3=C(C)C(OC(=O)C(O)C(NC(=O)OC(C)(C)C)c4ccccc4)CC(O)(C(OC(=O)c4ccccc4)C21)C3(C)C (stereo not given) + CC1OCC2(CCN(c3cnc(Sc4ccnc(N)c4Cl)c(N)n3)CC2)C1N | > 3.16 µM | > 3.16 µM | > 3.16 µM | < 0.01 µM | 69.1% | 60% | 73.8% | 66.5% | 76.2% | 72.9% | 65.5% | 55.9% | 66.9% | 65.4% | 75.5% | 84.9% | 84.5% | 84.3% | 93.8% | 39.1% | IC50 (second compound 10 µM): < 0.01 µM; viability, T/C [6]: 61.6%; viability, T/C [12]: 70.4%; viability, T/C [18]: 91.1%; viability, T/C [24]: 47.4%; viability, T/C [26]: 50.6%; viability, T/C [27]: 40.5%; viability, T/C [28]: 44.1%; viability, T/C [29]: 40.9%; viability, T/C (second compound 10 µM, first compound 0.01 µM): 41.6%; viability, T/C (second compound 10 µM, first compound 0.0316 µM): 44.7%; viability, T/C (second compound 10 µM, first compound 0.1 µM): 42%; viability, T/C (second compound 10 µM, first compound 0.316 µM): 34.7%; viability, T/C (second compound 10 µM, first compound 1 µM): 42.6%; viability, T/C (second compound 10 µM, first compound 3.16 µM): 35%
